Source: US8278359B2, “Compositions containing amines and use thereof to treat acne or reduce the appearance of oil or pores on the skin” (Johnson & Johnson Consumer Companies, Inc., priority 2005, dated 2012)

What was measured:
Format in all cases: cell-based
[1] = tested on: human facial skin biopsy punches rich in sebaceous glands; experiment: Sebum lipid accumulation in facial skin biopsy punches (C14-acetate, HPTLC); details: 25 um; two experiments, two donors
From the text: The ability of THPED to selectively affect the content of squalene present in human sebum without affecting other components of sebum was illustrated by its ability to selectively reduce the content of squalene present in human skin using the following assay.
The Methods used are as described previously by Pappas et al. (J Invest Dermatol. 2002 January; 118(1):164-171). In summary, samples of facial skin (otherwise to be discarded) were obtained from female patients 45-65 years of age. The subjects were healthy females without a history of retinoid or laser treatment or chemotherapy. The specimens were obtained from facial lift surgery within 5 hours from the end of the surgery. Two mm biopsy punches were taken from tissues rich in sebaceous glands and cultured in serum free medium. […]
The lipid components extracted from the explanted glands were analyzed by chromatographic separation on 10×20 cm Whatman HPTLC Silica G plates that had been previously charged with chloroform, heated in a vacuum oven at 105° C. for 30 min and cooled to room temperature in a dessicator. […]

[2] = tested on: IL-2 (Interleukin-2); experiment: PHA-stimulated peripheral blood lymphocyte cytokine release: IL-2; details: Homo sapiens, 48 h, read-out: IL-2 % inh.
From the text: The ability of various amines to affect the inflammatory responses was illustrated by its ability to reduce the production of cytokines by human lymphocytes stimulated with the T-cell receptor (TCR) activating agent phytohaemagglutinin (PHA) in the following assay.
Human leukocytes were collected from a healthy adult […] via leukopheresis, and adjusted to a density Of 1×10^6 cells/mL in serum free lymphocyte growth medium (ExVivo-15, Biowhittaker, Walkersville, Md.). PBLs were stimulated with 10 μg/mL PHA in the presence or absence of test samples following published methods (Hamamoto Y., et al. Exp Dermatol 2:231-235, 1993). The following compounds were evaluated N,N,N′,N′-Tetrakis(2-hydroxypropyl)ethylenediamine (THPED, available from BASF under the tradename “Quadrol” or “Neutrol”), N,N,N,N-Tetramethylethylenediamine (TEMED, available from Pfaltz & Bauer Chemicals (Waterbury, Conn.)), and Diethylenetriamine (available from Sigma-Aldrich) Following a 48 hour incubation at 37° C. with 5% CO2, the supernatant was removed and evaluated for cytokine content using commercially available multiplex cytokine detection kit.

[3] = tested on: Human keratinocytes; experiment: Electric Cell-substrate Impedance Sensing (ECIS) capacitance, keratinocyte contraction; details: capacitance integrated over 5 hrs, 40,000 Hz, pH 7.2-7.3
From the text: Electrical changes due to the presence of a cell layer can be used to calculate cell morphological parameters including the barrier function of the cell layer (the spacing between the ventral side of the cell and the substratum) and the cell membrane capacitance (Giaever and Keese, Proceedings of National Academy of Sciences 88, 7896, 1991).
Current flowing between a reference electrode, onto which cells or cell cultures may be attached, and a larger counter electrode using normal culture medium as the electrolyte can be used to detect changes in cell morphological parameters. In the absence of cells on the electrode, the current flows unrestrained from the surface of the electrodes. In the presence of cells attached and spread upon the electrode, the current must now flow in the spaces under and between the cells, as the cell membrane act as insulators.
The electrical changes of living, viable cells can be sampled rapidly, in real time, over an extended period of time, and the measurements are the measurement is non-invasive. An example of this technology is the Electric Cell-substrate Impedance Sensing System (ECIS) available from Applied Biophysics (Troy, N.Y.). […]
Human keratinocytes and Epilife culture media (Cascade Biologics, Portland, Oreg.) were cultured at 37° C. in a humidified atmospheres of 5% CO2/95% air. […] Capacitance changes (in nanofarads, nF) of keratinocytes were measured using a Electric Cell-substrate Impedance Sensing System (ECIS) Model 1600R (Applied Biophysics, Troy, N.Y.) using the method of Wegener and co-workers (Wegener J, Keese C R, Giaever I, Exp Cell Res. 259:158-166, 2000) at a frequency of 40,000 Hz. Capacitance readings are inversely related to the contact area of a cell onto the ECIS electrode array, the greater the cell area contacting the electrode the smaller the capacitance readings (Wegener J, Keese C R, Giaever I, Exp Cell Res. 259:158-166, 2000). Conversely as a cell contracts or shrinks, the contact area of the cell onto the ECIS electrode array decreases, resulting in an increase in the capacitance readings. […]

CC(O)CN(CCN(CC(C)O)CC(C)O)CC(C)O (stereo not shown) [THPED, N,N,N′,N′-Tetrakis(2-hydroxypropyl)ethylenediamine]
Inhibition of Squalene accumulation, (Percent of Vehicle Treated) [1]: 44.0%
Inhibition of Triglyceride accumulation, (Percent of Vehicle Treated) [1]: 2.65%
inhibition at 10 µg/mL [2]: 10.6%
inhibition at 100 µg/mL [2]: 41.3%
Electrical Capacitance Contraction of Human Keratinocytes (AUC, Mean ± Std Dev) ([3]; 0.01% V/V): 29.2 ± 3.2
Electrical Capacitance Contraction of Human Keratinocytes (AUC, Mean ± Std Dev) ([3]; 0.05% V/V): 35.1 ± 5.3
Electrical Capacitance Contraction of Human Keratinocytes (AUC, Mean ± Std Dev) ([3]; 0.1% V/V): 44.5 ± 9.1
